# Values quoted from earlier work, collected in patent US10617673B2, “Cannabinoid receptor antagonists/inverse agonists useful for treating metabolic disorders, including obesity and diabetes” (Jenrin Discovery, LLC, priority 2012, dated 2020).
# Settings: type 2 diabetes patients not on other anti-diabetic medications, after six months, baseline value 7.9
smiles,measurement,value
Cc1c(C(=O)NN2CCCCC2)nn(-c2ccc(Cl)cc2Cl)c1-c1ccc(Cl)cc1 [rimonabant],HbA1c levels lowered,0.8%
